Measurements taken from patent publication US5393897A, “Isolation and structure of spongistatins 5,7,8 and 9” (Arizona Board of Regents acting on behalf of Arizona State …, priority 1993, dated 1995).

Assays:
Type in all cases: cell-based
Breast Cancer = experiment: NCI cell line panel, breast cancer line, BT-549 or T-47D not assignable; details: Homo sapiens, last of 7 values for 8 lines, read-out: Log10 GI50 (converted)
Description: Only two hundred years ago, many diseases ravaged humankind. Many of these diseases now have been controlled or eradicated. In the development of the means to treat or control these diseases, work with the appropriate common experimental animals was of critical importance. With the various types of cancers, and with the HIV virus, such work is presently ongoing. The research for the treatment of various types of cancer is coordinated in the United States by the National Cancer Institute (NCI). NCI, as a government entity, has been charged with assisting anti-cancer research. To establish whether a substance has anti-cancer activity, NCI has established a variety of protocols, one of which involves testing the candidate substance against a cell line panel containing 60 human tumor cell lines. This protocol has been verified and is generally accepted throughout the scientific community. This protocol and the established statistical means of evaluating the results obtained therefrom have been fully described in the literature. See Principles & Practice of Oncology PPO Updates, Volume 3, Number 10, October 1989, by Michael R. Boyd, M.D., Ph.D., for an in depth description of the test protocol. […]

MDA-MB-435 = experiment: NCI cell line panel; details: Homo sapiens, Breast Cancer, read-out: Log10 GI50 (converted)
Description: (§1) Only two hundred years ago, many diseases ravaged humankind. Many of these diseases now have been controlled or eradicated. In the development of the means to treat or control these diseases, work with the appropriate common experimental animals was of critical importance. With the various types of cancers, and with the HIV virus, such work is presently ongoing. The research for the treatment of various types of cancer is coordinated in the United States by the National Cancer Institute (NCI). NCI, as a government entity, has been charged with assisting anti-cancer research. To establish whether a substance has anti-cancer activity, NCI has established a variety of protocols, one of which involves testing the candidate substance against a cell line panel containing 60 human tumor cell lines. This protocol has been verified and is generally accepted throughout the scientific community. This protocol and the established statistical means of evaluating the results obtained therefrom have been fully described in the literature. See Principles & Practice of Oncology PPO Updates, Volume 3, Number 10, October 1989, by Michael R. Boyd, M.D., Ph.D., for an in depth description of the test protocol. The statistical analysis is explained in "Display and Analysis of Patterns of Differential Activity of Drugs Against Human Tumor Cell Lines: Development of Means Graph and COMPARE Algorithm" Journal of the National Cancer Institute Reports Vol. 81, No. 14, Pg. 1088, Jul. 14, 1989, by K. D. Paull et al. Both of these references are incorporated herein by this reference thereto. The effectiveness and validity of the NCI in vitro protocol continues to be verified.

SK-MEL-5 = experiment: NCI cell line panel; details: Homo sapiens, Melanoma, read-out: Log10 GI50 (converted)
Description: as §1

M14 = experiment: NCI cell line panel; details: Homo sapiens, Melanoma, read-out: Log10 GI50 (converted)
Description: as §1

MALME-3M = experiment: NCI cell line panel; details: Homo sapiens, read-out: Log10 GI50 (converted)
Description: as §1

SK-MEL-28 = experiment: NCI cell line panel; details: Homo sapiens, SK-MEL-28, read-out: Log10 GI50 (converted)
Description: as §1

SK-MEL-2 = experiment: NCI cell line panel; details: Homo sapiens, Melanoma, read-out: Log10 GI50 (converted)
Description: as §1

With `C=C/C=C/C(O)CC(=C)CC1OC2C(C)C(OC(=O)CC3CC(O)CC4(CC(C)(O)CC(C=C5COC(C(C)C(=O)CC6CC(OC)CC7(CC(O)CC(/C=C\CCCC8OC(O)(CC(O)C8C)C2O)O7)O6)C5C)O4)O3)C1O` (stereo not shown) [spongistatin 7] the GI50 (Breast Cancer) was 100 nM, the GI50 (MDA-MB-435) was 0.0191 nM and the GI50 (SK-MEL-5) was 0.0851 nM. It also gave a GI50 (M14) of 0.49 nM, a GI50 (MALME-3M) of 0.398 nM and a GI50 (SK-MEL-28) of 1.29 nM. For the same compound, the GI50 (SK-MEL-2) was 0.347 nM.
